Reference: patent publication US9745310B2 (SK BIOPHARMACEUTICALS CO., LTD., priority 2015, dated 2017)

Target: human mGluR5 receptor (Homo sapiens (Human), UniProt P41594)
Assay: Calcium influx assay based on fluorescence (mGluR5 PAM activity)
Details: human mGluR5 receptor-overexpressed HEK293 cell line; L-glutamate EC20; Fluo-4, FLIPR
Method: Efficacy as a positive allosteric modulator (PAM) of mGluR5 of the compounds of the Examples was tested as follows:
Calcium Influx Assay Based on Fluorescence
Ca^2+ (calcium) influx assay is an experiment for measuring the activity of a positive allosteric modulator of mGluR5 receptor in which human mGluR5 receptor-overexpressed HEK293 cell line is used. The day before the experiment, cells were prepared in a cell culture medium (DMEM, 5% FBS) with the density of 80,000/well, and 100 μl of cells were dispensed into each well of a poly-D-lysine-coated 96-well plate. Cells were incubated in a 5% CO2, 37° C. incubator. The next day, the cell culture medium was removed from the plate, and 100 μl of 1× Fluo-4 calcium indicator diluted with a buffer (1× Hank's balanced salt solution, 20 mM HEPES, 2.5 mM probenecid) were added to each well and incubated at 37° C. for 1 hour. The compound stock solutions were prepared in 100% DMSO, and the compounds were serially diluted with a ¼ dilution to 6 or 7 concentrations (final concentration was 10 μM to 10 nM). The diluted compound solutions were added to the plate with 0.1 to 0.2% of final DMSO concentration. 1 hour after the addition of Fluo-4 calcium indicator, L-glutamate (EC20 concentration) and the test compound solutions were added to the plate, and Ca^2+ reaction was then measured by FLIPR at room temperature. The activity of the compounds was standardized on the basis of the results of maximum value-minimum value of fluorescent reaction, and the activity value was calculated on the basis that no activity on glutamate EC20 is 0% and the reaction to glutamate maximum value is 100%.

human mGluR5 receptor, sequence (P41594 21-1212): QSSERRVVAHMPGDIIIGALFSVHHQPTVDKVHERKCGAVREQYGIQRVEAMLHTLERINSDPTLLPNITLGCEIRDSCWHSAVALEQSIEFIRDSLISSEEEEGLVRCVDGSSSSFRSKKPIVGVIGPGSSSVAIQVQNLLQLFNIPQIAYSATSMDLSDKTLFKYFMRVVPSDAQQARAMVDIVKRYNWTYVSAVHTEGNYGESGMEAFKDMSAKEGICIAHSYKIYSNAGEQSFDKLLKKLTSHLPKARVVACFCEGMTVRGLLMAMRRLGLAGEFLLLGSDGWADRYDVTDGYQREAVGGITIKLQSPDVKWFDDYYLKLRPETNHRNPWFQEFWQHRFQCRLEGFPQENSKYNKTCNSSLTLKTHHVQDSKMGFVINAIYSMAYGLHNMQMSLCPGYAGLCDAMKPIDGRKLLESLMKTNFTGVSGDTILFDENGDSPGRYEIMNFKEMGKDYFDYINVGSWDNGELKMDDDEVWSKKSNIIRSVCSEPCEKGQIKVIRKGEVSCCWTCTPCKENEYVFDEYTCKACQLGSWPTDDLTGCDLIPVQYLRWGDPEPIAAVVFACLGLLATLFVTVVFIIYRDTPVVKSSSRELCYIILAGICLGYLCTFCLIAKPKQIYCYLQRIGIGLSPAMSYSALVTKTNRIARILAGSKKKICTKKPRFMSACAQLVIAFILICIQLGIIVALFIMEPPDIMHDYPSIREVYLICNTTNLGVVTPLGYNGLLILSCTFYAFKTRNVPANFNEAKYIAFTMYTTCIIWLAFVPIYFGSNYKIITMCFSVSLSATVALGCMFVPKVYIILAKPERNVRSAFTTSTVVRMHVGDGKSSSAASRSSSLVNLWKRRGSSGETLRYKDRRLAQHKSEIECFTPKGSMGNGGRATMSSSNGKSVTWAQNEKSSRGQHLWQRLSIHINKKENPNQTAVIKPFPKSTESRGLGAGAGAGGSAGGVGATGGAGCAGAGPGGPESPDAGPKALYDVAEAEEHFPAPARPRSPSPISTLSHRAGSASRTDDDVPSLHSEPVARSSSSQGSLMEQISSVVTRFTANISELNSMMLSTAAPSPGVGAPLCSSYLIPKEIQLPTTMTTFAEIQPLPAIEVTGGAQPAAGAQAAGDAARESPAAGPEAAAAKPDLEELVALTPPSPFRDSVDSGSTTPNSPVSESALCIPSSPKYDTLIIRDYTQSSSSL

EC50	SMILES
0.5 to 1 µM	Fc1ccc(OCc2cn3cc(-c4ccncc4Cl)cnc3n2)cc1 [Example 49, 6-(3-chloropyridin-4-yl)-2-(4-fluorophenoxymethyl)imidazo[1,2-a]pyrimidine]
0.5 to 1 µM	Cc1cccc(C)c1-c1cnc2nc(COc3ccc(F)cc3)cn2c1 [Example 50, 6-(2,6-dimethylphenyl)-2-(4-fluorophenoxymethyl)imidazo[1,2-a]pyrimidine]
0.1 to 0.5 µM	Fc1ccc(OCc2cn3cc(-c4ccc(F)nc4)cnc3n2)cc1 [Example 51, 2-[(4-fluorophenoxy)methyl]-6-(6-fluoro-3-pyridyl)imidazo[1,2-a]pyrimidine]
0.1 to 0.5 µM	Oc1ccc(OCc2cn3cc(-c4ccc(F)cc4)cnc3n2)cc1 [Example 52, 4-[[6-(4-fluorophenyl)imidazo[1,2-a]pyrimidin-2-yl]methoxy]phenol]
0.1 to 0.5 µM	Fc1ccc(OCc2cn3cc(-c4ccc(F)cc4)cnc3n2)cc1 [Example 53, 2-[(4-fluorophenoxy)methyl]-6-(4-fluorophenyl)imidazo[1,2-a]pyrimidine]
0.1 to 0.5 µM	Fc1ccc(-c2cnc3nc(COc4cccc(F)c4)cn3c2)cc1 [Example 54, 2-[(3-fluorophenoxy)methyl]-6-(4-fluorophenyl)imidazo[1,2-a]pyrimidine]
0.1 to 0.5 µM	Oc1cc(-c2cnc3nc(COc4ccc(F)cc4)cn3c2)ccc1F [Example 55, 2-fluoro-5-[2-[(4-fluorophenoxy)methyl]imidazo[1,2-a]pyrimidin-6-yl]phenol]
0.1 to 0.5 µM	Fc1ccc(OCc2cn3cc(-c4ccccc4)cnc3n2)cc1 [Example 56, 2-[(4-fluorophenoxy)methyl]-6-phenyl-imidazo[1,2-a]pyrimidine]
0.1 to 0.5 µM	Oc1cc(F)ccc1-c1cnc2nc(COc3cccc(F)c3)cn2c1 [Example 57, 5-fluoro-2-[2-[(3-fluorophenoxy)methyl]imidazo[1,2-a]pyrimidin-6-yl]phenol]
0.1 to 0.5 µM	Oc1cc(F)ccc1-c1cnc2nc(COc3ccc(F)cc3)cn2c1 [Example 58, 5-fluoro-2-[2-[(4-fluorophenoxy)methyl]imidazo[1,2-a]pyrimidin-6-yl]phenol]
0.1 to 0.5 µM	[2H]c1c([2H])c([2H])c(OCc2cn3cc(-c4ccc(F)cc4)cnc3n2)c([2H])c1[2H] [Example 59, 6-(4-fluorophenyl)-2-[(2,3,4,5,6-pentadeuteriophenoxy)methyl]imidazo[1,2-a]pyrimidine]
0.1 to 0.5 µM	Cc1ccccc1-c1cnc2nc(COc3ccc(F)cc3)cn2c1 [Example 60, 2-[(4-fluorophenoxy)methyl]6-(o-tolyl)imidazo[1,2-a]pyrimidine]
0.5 to 1 µM	Cc1ccc(F)cc1-c1cnc2nc(COc3ccc(F)cc3)cn2c1 [Example 61, 6-(5-fluoro-2-methyl-phenyl)-2-[(4-fluorophenoxy)methyl]imidazo[1,2-a]pyrimidine]
0.5 to 1 µM	Fc1ccc(OCc2cn3cc(-c4ccnc(F)c4)cnc3n2)cc1 [Example 62, 2-[(4-fluorophenoxy)methyl]-6-(2-fluoro-4-pyridyl)imidazo[1,2-a]pyrimidine]
0.1 to 0.5 µM	Oc1ccccc1-c1cnc2nc(COc3ccc(F)cc3)cn2c1 [Example 63, 2-[2-[(4-fluorophenoxy)methyl]imidazo[1,2-a]pyrimidin-6-yl]phenol]
0.5 to 1 µM	Cc1ccc(-c2cnc3nc(COc4ccc(F)cc4)cn3c2)c(F)c1 [Example 64, 6-(2-fluoro-4-methyl-phenyl)-2-[(4-fluorophenoxy)methyl]imidazo[1,2-a]pyrimidine]
0.1 to 0.5 µM	Fc1ccc(OCc2cn3cc(-c4ccc(C(F)(F)F)nc4)cnc3n2)cc1 [Example 65, 2-[(4-fluorophenoxy)methyl]-6-[6-(trifluoromethyl)-3-pyridyl]imidazo[1,2-a]pyrimidine]

EC50	SMILES
0.1 to 0.5 µM	Nc1ccccc1-c1cnc2nc(COc3ccc(F)cc3)cn2c1 [Example 66, 2-[2-[(4-fluorophenoxy)methyl]imidazo[1,2-a]pyrimidin-6-yl]aniline]
0.1 to 0.5 µM	COc1cc(C#N)ccc1-c1cnc2nc(COc3ccc(F)cc3)cn2c1 [Example 68, 4-[2-[(4-fluorophenoxy)methyl]imidazo[1,2-a]pyrimidin-6-yl]-3-methoxy-benzonitrile]
0.1 to 0.5 µM	COc1cc(Cl)ccc1-c1cnc2nc(COc3ccc(F)cc3)cn2c1 [Example 69, 6-(4-chloro-2-methoxy-phenyl)-2-[(4-fluorophenoxy)methyl]imidazo[1,2-a]pyrimidine]
0.1 to 0.5 µM	Nc1cc(-c2cnc3nc(COc4ccc(F)cc4)cn3c2)ccc1F [Example 70, 2-fluoro-5-[2-[(4-fluorophenoxy)methyl]imidazo[1,2-a]pyrimidin-6-yl]aniline]
0.1 to 0.5 µM	Fc1cccc(OCc2cn3cc(-c4ccc(F)nc4F)cnc3n2)c1 [Example 71, 6-(2,6-difluoro-3-pyridyl)-2-[(3-fluorophenoxy)methyl]imidazo[1,2-a]pyrimidine]
0.1 to 0.5 µM	Cc1ccc(-c2cnc3nc(COc4ccc(F)cc4)cn3c2)cc1N [Example 72, 5-[2-[(4-fluorophenoxy)methyl]imidazo[1,2-a]pyrimidin-6-yl]-2-methyl-aniline]
0.5 to 1 µM	Nc1cc(F)c(F)cc1-c1cnc2nc(COc3ccc(F)cc3)cn2c1 [Example 73, 4,5-difluoro-2-[2-[(4-fluorophenoxy)methyl]imidazo[1,2-a]pyrimidin-6-yl]aniline]
0.1 to 0.5 µM	Cc1ccc(-c2cnc3nc(COc4ccc(F)cc4)cn3c2)c(N)c1 [Example 74, 2-[2-[(4-fluorophenoxy)methyl]imidazo[1,2-a]pyrimidin-6-yl]-5-methyl-aniline]
0.1 to 0.5 µM	Nc1cc(Cl)ccc1-c1cnc2nc(COc3ccc(F)cc3)cn2c1 [Example 75, 5-chloro-2-[2-[(4-fluorophenoxy)methyl]imidazo[1,2-a]pyrimidin-6-yl]aniline]
0.1 to 0.5 µM	Cc1ccc(N)c(-c2cnc3nc(COc4ccc(F)cc4)cn3c2)c1 [Example 76, 2-[2-[(4-fluorophenoxy)methyl]imidazo[1,2-a]pyrimidin-6-yl]-4-methyl-aniline]
0.1 to 0.5 µM	Nc1cc(F)ccc1-c1cnc2nc(COc3ccc(F)cc3)cn2c1 [Example 77, 5-fluoro-2-[2-[(4-fluorophenoxy)methyl]imidazo[1,2-a]pyrimidin-6-yl]aniline]
0.1 to 0.5 µM	Cc1ccncc1-c1cnc2nc(COc3ccc(F)cc3)cn2c1 [Example 78, 2-[(4-fluorophenoxy)methyl]-6-(4-methyl-3-pyridyl)imidazo[1,2-a]pyrimidine]
0.1 to 0.5 µM	Fc1cccc(OCc2cn3cc(-c4ccnc(F)c4)cnc3n2)c1 [Example 79, 2-[(3-fluorophenoxy)methyl]-6-(2-fluoro-4-pyridyl)imidazo[1,2-a]pyrimidine]
0.1 to 0.5 µM	Fc1cccc(OCc2cn3cc(-c4ccc(F)nc4)cnc3n2)c1 [Example 81, 2-[(3-fluorophenoxy)methyl]-6-(6-fluoro-3-pyridyl)imidazo[1,2-a]pyrimidine]
0.1 to 0.5 µM	Fc1cccc(OCc2cn3cc(-c4cccnc4F)cnc3n2)c1 [Example 82, 2-[(3-fluorophenoxy)methyl]-6-(2-fluoro-3-pyridyl)imidazo[1,2-a]pyrimidine]
0.1 to 0.5 µM	Fc1ccc(OCc2cn3cc(-c4cnc(F)c(F)c4)cnc3n2)cc1 [Example 83, 6-(5,6-difluoro-3-pyridyl)-2-[(4-fluorophenoxy)methyl]imidazo[1,2-a]pyrimidine]
